The record followed here is patent US11123314B2 (NATIONAL CANCER CENTER, priority 2017, dated 2021).

The subject of series [1] is pancreatic cancer cell lines Miapaca-2, Panc-1, Aspc-1, SNU-410, SNU-324, Bxpc-3. The series can be described thus: SRB assay, inhibitory effect of gossypol or phenformin alone on growth of pancreatic cancer cells. The class given is cell-based. As to conditions: for inhibitory effect on cell proliferation: 48 hours after treatment with the drug, applied alone; for proliferation of the cancer cells: gossypol or phenformin added alone to each type of the pancreatic cancer cells, SRB assay. A general note: The SRB assay estimates cell density from bound dye.
Protocol: (§3) Specifically, each type of various pancreatic cancer cell lines, Miapaca-2, Panc-1, Aspc-1, SNU-410, SNU-324, and Bxpc-3 cells, was cultured, during which each type of cells was inoculated into a 96-well plate at a density of 5,000 to 20,000 cells/well depending on an amplification period of culture time. After inoculation, gossypol or phenformin was added to each well and incubated in a CO2 incubator for 24 hours. Then, the cells were fixed by adding 50% (w/v) cooled trichloroacetic acid (TCA) to each well so as to become a final concentration of 10%. The supernatant other than the fixed cells was removed and the plate was washed about five times with tap water and then air dried. After drying, 0.4% (w/v) sulforhodamine B buffer solution containing 1% acetic acid was added to each well, and the plate was left to stand at room temperature for 10 minutes so that the cells were stained. After staining the cells, the plate was washed 5 times with 1% acetic acid to remove unstained dye, and then air dried. The stained dye was immobilized with 10 mM trizma base, and then absorbance was measured at 515 nm using a plate reader.

Series [2] concerns Miapaca2 pancreatic cancer cell line. The experiment in a line: Pancreatic cancer mouse model (xenograft), tumor volume and weight. Format: in vivo, Balb/c-nu mice. As to conditions: gossypol 40 mg/kg, phenformin 100 mg/kg, oral once a day, alone or combined; compared with solvent control. As to the method:
(§1) First, 6- to 8-week-old Balb/c-nu mice (Central Lab. Animal, Highland Heights, Ky., USA) were prepared to make a pancreatic cancer mouse model. In addition, Miapaca2 pancreatic cancer cell line was cultured at 5.0×10^6 cells, and subcutaneously injected into the prepared mice with a 1-ml syringe. The mice were bred for 2 weeks, and divided into four groups in total, with each group containing 6 mice. The four groups were used as a solvent control group (10% DMSO, 40% PEG, 50% PBS), a group in which 40 mg/kg/100 μl of gossypol is administered alone, a group in which 100 mg/kg/100 μl of phenformin is administered alone, and a group in which gossypol+phenformin are administered in combination, respectively. To each mouse group was orally administered once a day the solvent or the drug, and the mice were bred in the same environment for a total of 61 days.
(§2) While breeding the mice, body weights and tumor sizes in each mouse group were checked every 3 days and averaged. A size of the initial tumor after injection of pancreatic cancer cells was determined using a caliper. A tumor volume was calculated using the following Equation 1.

The subject of series [3] is normal epithelial cell line IMR90. The experiment in a line: Annexin V-FITC/PI apoptosis detection by flow cytometry in normal cells. As to conditions: gossypol 10 μM, phenformin 100 μM, alone or mixed; 24, 48 and 72 hours. As to the method: First, the normal epithelial cell line IMR90 was cultured. Then, the cultured cells were treated with a single drug of gossypol 10 μM or phenformin 100 μM, or a mixed drug obtained by mixing them, and culture was performed for 24, 48, and 72 hours in total. The medium was removed from the cultured cells, and the cultured cells were washed twice with cold PBS. Centrifugation was performed at 1,400 rpm for 3 minutes, and then a binding buffer solution was added thereto at a concentration of 1×10^6 cells/mL. […] of the buffer solution was transferred to a 5-mL culture tube, and 5 μl of each of Annexin V-FITC and propidium iodide (PI) was added thereto. The tube was slowly vortexed to perform mixing, and then incubated for 15 minutes in a dark room at room temperature. After the incubation, a binding buffer solution (400 μl) was added thereto and a level of increase in cell death was checked by flow cytometry.
For orientation: A flow cytometer gives signals particle by particle.

Series [4] is described as follows: Pancreatic cancer mouse model, body weight. As to conditions: oral once a day, 61 days; compared among experimental groups. As to the method: as §1, §2
Series [5] deals with Miapaca2, Panc-1, or Aspc-1 cells. The experiment in a line: Intracellular ATP level (ATP Colorimetric/Fluorometric Analysis Kit). The class given is cell-based. The settings on record: gossypol 5 μM, phenformin 500 μM, alone or mixed; compared with control group with no drug treatment. As to the method: Then, an intracellular ATP level was checked with the ATP Colorimetric/Fluorometric Analysis Kit (BioVision, Milpitas, Calif., USA) according to the protocol provided by the manufacturer. The cultured cells were divided into 1×10^6 cells and 100 μl of ATP assay buffer was added thereto to dissolve the cells. Then, centrifugation was performed at 15,000×g for 2 minutes at 4° C., to separate only the supernatant. 2 to 50 μl of the separated supernatant was transferred to a 96-well plate, and then an ATP assay buffer was added to a final volume of 50 μl per well. Thereafter, an ATP reaction mixture containing 44 μl of ATP assay buffer, 2 μl of ATP probe, 2 μl of ATP converter, and 2 μl of developer mixture was added to the 96-well plate at 50 μl per well and mixing was performed.

The test system is the same in series [6]. As to conditions: applied alone at low drug concentration (gossypol 5 or 10 μM; phenformin 100 or 500 μM).
Protocol: as §3
Specifically, Miapaca2, Panc-1, or Aspc-1 cells were cultured. Each type of the cultured cells was treated with a mixed drug obtained by mixing gossypol 5 μM and phenformin 100 μM, or gossypol 10 μM and phenformin 500 μM, and cultured in the same manner.
The subject of series [7] is Miapaca2, Panc-1, CAPAN1, CAPAN2, ASPC-1, SNU-213, SNU-324, or BXPC-3 cells. The experiment in a line: SRB assay, combined treatment with gossypol, phenformin and anti-cancer agent (triple combination). The class given is cell-based. As to conditions: 48 hours; compared with group given gossypol or phenformin alone; gossypol 2.5 or 5 μM, phenformin 100 μM, irinotecan 1 μM. As to the method:
Specifically, Miapaca2, Panc-1, CAPAN1, CAPAN2, ASPC-1, SNU-213, SNU-324, or BXPC-3 cells were cultured. Each type of the cultured cells was treated with gossypol, phenformin, or irinotecan alone, or with a mixed drug thereof. […] As a control group, an untreated group with no drug treatment was used, and a relative cell proliferation level in each drug-treated group was expressed and calculated as a percentage as compared with the control group.

SMILES strings stand for the structures.

On to `Cc1cc2c(C(C)C)c(O)c(O)c(C=O)c2c(O)c1-c1c(C)cc2c(C(C)C)c(O)c(O)c(C=O)c2c1O` [gossypol], for which, in series [1], the “inhibitory effect on cell proliferation” value was “complete inhibitory effect on cell proliferation” and the “proliferation of the cancer cells” value was “significantly inhibited”. For the same molecule, in series [2], the “level of increase in tumor volume” value is reported as “somewhat decreased”. The “cell death over time in IMR90 normal cells” value in series [3] was “significant increase in cell death is not exhibited”. In addition, the body weights result in series [4] is listed as “not significantly different”. Besides, the “intracellular ATP level” value in series [5] is given as “decreased”. Further, in series [6], the “inhibition of cell growth” value was “significant inhibition of cell growth was not exhibited”.
For the molecule `CCc1c2c(nc3ccc(OC(=O)N4CCC(N5CCCCC5)CC4)cc13)-c1cc3c(c(=O)n1C2)COC(=O)[C@]3(O)CC` [irinotecan], the “proliferation level in pancreatic cancer cells” value in series [7] was “significantly decreased”.
Regarding `[H]/N=C(/N)N/C(=N/[H])NCCc1ccccc1` [phenformin], in series [1], the “inhibitory effect on cell proliferation” value was “complete inhibitory effect on cell proliferation” and the “proliferation of the cancer cells” value is given as “significantly inhibited”. Further, the “level of increase in tumor volume” value in series [2] is recorded as “somewhat decreased”. Moreover, in series [3], the “cell death over time in IMR90 normal cells” value is reported as “significant increase in cell death is not exhibited”. Moreover, the “intracellular ATP level” value in series [5] is reported as “decreased”. Besides, the “inhibition of cell growth” value in series [6] is given as “significant inhibition of cell growth was not exhibited”.
